Earlier results, collected in article PMC3298469, “A selective and potent CXCR3 antagonist SCH 546738 attenuates the development of autoimmune diseases and delays graft rejection” (BMC Immunology, 2012).
Read-outs that look alike come from different tables or passages of the source.

How the values were obtained:
rat = test system: rat; design: method as in ref 21 = [21]; Medina J Presented at the 29th National Medicinal Chemistry Symposium (Madison, Wisconsin), June 27-July 1 2004; conditions: rat model of CIA; cited from earlier work
mouse = test system: mouse; design: method as in ref 21 = [21]; Medina J Presented at the 29th National Medicinal Chemistry Symposium (Madison, Wisconsin), June 27-July 1 2004; conditions: mouse model of CIA; cited from earlier work
[1] = Phase II clinical trials, halted; cited from earlier work
cardiac allograft = conditions: cited from earlier work
EAE = test system: EAE; design: method as in PMID 20050195; conditions: by decreasing migration of inflammatory cells into the CNS; cited from earlier work
[2] = design: method as in ref 44 = [44]; Medarex Announces Primary Endpoint Achieved in MDX-1100 Anti-IP-10 Antibody Phase 2 Trial for Rheumatoid Arthritis http://www.fiercebiotech.com/press-releases/medarex-announces-primary-endpoint-achiev; conditions: phase 2 clinical trial for RA; cited from earlier work

## CCOc1ccc(-n2c([C@@H](C)N(Cc3cccnc3)C(=O)Cc3ccc(OC(F)(F)F)cc3)nc3ncccc3c2=O)cc1 [AMG487]
rat
  effect in CIA: reduced inflammation and cartilage damage
mouse
  effect in CIA: reduced inflammation and cartilage damage
[1]
  clinical outcome: lack of efficacy

## Cc1ccc(-c2ccc3c(c2)C=C(C(=O)Nc2ccc(C[N+](C)(C)C4CCOCC4)cc2)CCC3)cc1.[Cl-] [TAK-779]
Cardiac allograft
  effect on cardiac allograft vasculopathy: attenuates cardiac allograft vasculopathy
EAE
  effect on EAE: reduce incidence and severity of EAE

## MDX-1100: anti-IP-10 antibody
[2]
  clinical outcome: efficacy
